Where “and” joins values, the source holds several entries; their conditions need not be identical. Identical values can stand only once. Like-named read-outs stand apart in the source and are kept apart here.
Experiments:
Format in all cases: cell-based
[1] = system: Acinetobacter baumannii 03.021.1 (GN_038), Colistin resistant; test: MIC micro-broth dilution assay (Example 1 method); conditions: replicates
Description: (§1) Analysis was performed using Microsoft Excel.

[2] = system: Pseudomonas aeruginosa FADDI-PA067 (GN_177), Polymyxin resistant; test: MIC micro-broth dilution assay (Example 1 method); conditions: Pseudomonas aeruginosa, read-out: Minimum Inhibitory Concentration (MIC)
Description: as §1

[3] = system: Enterobacter cloacae CI Patercon BoxNo: 79 (GN_016), MDR; test: MIC micro-broth dilution assay (Example 1 method); conditions: replicates
Description: as §1

[4] = system: Klebsiella pneumoniae BAA-2146 (GN_045), NDM-1; test: MIC micro-broth dilution assay (Example 1 method); conditions: replicates
Description: as §1

[5] = system: Escherichia coli HS71 (GN_110), CTX-M; test: MIC micro-broth dilution assay (Example 1 method); conditions: Example 9 Table 35, compound alone, replicates
Description: as §1

[6] = system: Acinetobacter baumannii 03.021.1 (GN_039), Colistin resistant; test: MIC micro-broth dilution assay (Example 1 method); conditions: replicates
Description: as §1

[7] = system: Acinetobacter baumannii ATCC 19606 (GN_034); test: MIC micro-broth dilution assay (Example 1 method); conditions: for MIC: ATCC19606
[8] = system: Acinetobacter baumannii ATCC 19606; test: Synergy assay CBD with PMBN (Example 10); conditions: for FICI: Table 40
Description: (§2) The inoculum was then diluted in CaMHB to give a mid-log phase cultures and 40 μL was added to each well from column 1 to column 18, and column 23. 45 μL of the inoculum was added to each well from column 19 to column 22 to give the final cell density of 5×10^5 CFU/mL. The plates were incubated at 37° C. for 18-20h.
(§3) Optical density was read at 600 nm (OD600) using Gen5 Spectrophotometer. […] Analysis was performed using Microsoft Excel.
(§4) CBD was tested in combination with PMBN in a 14×9 matrix for each. CBD and PMBN were also included on the plate individually (from column 20 and 2) as positive controls and to collect the MIC values.
(§5) CBD was two-fold serial diluted across the wells of a 384-wells plate from row B to O (FIG. 1), while PMBN was two-fold serial diluted across the wells of a 384-wells plate from column 2 to 10 (FIG. 2). The inhibitor controls of each antibiotic/compound were 1:2 serial diluted down the plate at column 19, 20, 21 (respectively A, B and C antibiotic).
(§6) 5 μL of the CBD mother plate were plated vertically intro tested 384-well PS plate (for column 2-10). 5 μL were stamped out horizontally from the PMBN mother plate. Resulting in a final volume of 10 μL in the test plates. 5 μL antibiotic were added to the control column (column 20, 21). Column 23 was the growth control and column 24 was media control.

[9] = system: Klebsiella pneumoniae ATCC 700603; test: Synergy assay CBD with PMBN (Example 10)
Description: as §2, §3, §4, §5, §6

[10] = system: Pseudomonas aeruginosa ATCC 27853; test: Synergy assay CBD with PMBN (Example 10); conditions: for FICI: Table 40
Description: as §2, §3, §4, §5, §6

[11] = system: Escherichia coli ATCC 25922; test: Synergy assay CBD with PMBN (Example 10); conditions: for FICI: Table 40
Description: as §2, §3, §4, §5, §6

[12] = system: Pseudomonas aeruginosa ATCC 27853 (GN_042); test: MIC micro-broth dilution assay (Example 1 method); conditions: for MIC: ATCC27853
[13] = Acinetobacter baumannii, Example 8 Table 31, compound alone, read-out: Minimum Inhibitory Concentration (MIC)
[14] = Example 8 Table 31, compound alone
[15] = Example 9 Table 35, compound alone
[16] = Example 10, panel of wild type Gram-negative bacteria
[17] = CBD + PMBN at 1 (μg/mL per Table 39)
[18] = Example 10, CBD + PMBN, listed as CBD
[19] = CBD + PMBN at 16, listed as CBD

C=C(C)C1CCC(C)=CC1c1c(O)cc(CCCCC)cc1O (stereo not drawn) [Cannabidiol, 2-[3-methyl-6-(1-methylethenyl)-2-cyclohexen-1-yl]-5-pentyl-1,3-benzenediol]
0.625: FICI ([8]; CBD + PMBN at 16)
64 µg/mL and 32 µg/mL: CBD MIC with PMBN (MCC_9298) at concn 32 μg/mL ([9]; Example 10, listed as CBD) | CBD MIC with PMBN (MCC_9298) at concn 4 μg/mL ([10]; Example 10, listed as CBD) | CBD MIC with PMBN (MCC_9298) at concn 8 μg/mL ([10]; Example 10, listed as CBD) | CBD MIC with PMBN (MCC_9298) at concn 16 μg/mL ([10]; Example 10, listed as CBD)
> 256 µg/mL: MIC [1, 13] | MIC [2] | MIC ([3]; Enterobacter cloacae, Example 8 Table 31, compound alone, read-out: Minimum Inhibitory Concentration (MIC)) | MIC ([4]; Klebsiella pneumoniae, BAA2146, Example 9 Table 35, compound alone, read-out: Minimum Inhibitory Concentration (MIC)) | MIC ([5]; Escherichia coli, read-out: Minimum Inhibitory Concentration (MIC)) | MIC [6, 13] | MIC ([7]; Acinetobacter baumannii, Example 1 Table 3, GN_034, compound alone, replicates, read-out: Minimal Inhibitory Concentration (MIC)) | MIC ([7]; Acinetobacter baumannii, Example 4 Table 15, GN_034, compound alone, replicates, read-out: Minimum Inhibitory Concentration (MIC)) | MIC ([12]; Pseudomonas aeruginosa, Example 1 Table 3, GN_042, compound alone, replicates, read-out: Minimal Inhibitory Concentration (MIC)) | MIC ([12]; Pseudomonas aeruginosa, Example 6 Table 23, GN_042, compound alone, replicates, read-out: Minimum Inhibitory Concentration (MIC))
1.0625: FICI ([9]; Table 40, CBD + PMBN at 2)
0.16-1.13: FICI range ([8]; Example 10, CBD + PMBN)
1.25: FICI ([11]; CBD + PMBN at 32)
1.125: FICI ([8]; CBD + PMBN at 32) | FICI ([10]; CBD + PMBN at 32)
64 µg/mL: CBD MIC with PMBN (MCC_9298) at concn 1 μg/mL ([10]; Example 10) | CBD MIC with PMBN (MCC_9298) at concn 2 μg/mL ([10]; Example 10) | CBD MIC with PMBN (MCC_9298) at concn 1 μg/mL ([11]; Example 10) | CBD MIC with PMBN (MCC_9298) at concn 2 μg/mL ([11]; Example 10) | CBD MIC with PMBN (MCC_9298) at concn 32 μg/mL ([11]; Example 10)
0.5 and 0.375: FICI ([10]; CBD + PMBN at 8, listed as CBD)
0.375 and 0.25: FICI ([10]; CBD + PMBN at 4, listed as CBD)
0.2812: FICI [10, 17] | FICI [11, 17]
256 µg/mL: MIC ([7]; CBD alone, Acinetobacter baumannii ATCC 19606, read-out: CBD MIC) | CBD MIC ([7]; Acinetobacter baumannii ATCC 19606, CBD alone) | CBD MIC ([7]; CBD alone) | MIC ([12]; CBD alone, Pseudomonas aeruginosa ATCC 27853, read-out: CBD MIC) | CBD MIC ([12]; CBD alone) | CBD MIC ([12]; Pseudomonas aeruginosa ATCC 27853, CBD alone)
32 µg/mL: CBD MIC with PMBN (MCC_9298) at concn 1 μg/mL ([8]; Example 10) | CBD MIC with PMBN (MCC_9298) at concn 2 μg/mL ([8]; Example 10) | CBD MIC with PMBN (MCC_9298) at concn 4 μg/mL ([8]; Example 10) | CBD MIC with PMBN (MCC_9298) at concn 8 μg/mL ([8]; Example 10) | CBD MIC with PMBN (MCC_9298) at concn 16 μg/mL ([8]; Example 10) | CBD MIC with PMBN (MCC_9298) at concn 32 μg/mL ([8]; Example 10) | CBD MIC with PMBN (MCC_9298) at concn 32 μg/mL ([10]; Example 10)
0.28-1.13 and 0.25-1.13: FICI range [10, 18]
0.1875: FICI ([8]; CBD + PMBN at 2)
0.1562: FICI [8, 17]
0.375: FICI ([8]; CBD + PMBN at 8)
synergistic activity: CBD in combination with PMBN: synergy [8, 16] | CBD in combination with PMBN: synergy [9, 16] | CBD in combination with PMBN: synergy [10, 16] | CBD in combination with PMBN: synergy [11, 16]
0.75 and 1.5: FICI [11, 19]
0.3125: FICI ([10]; CBD + PMBN at 2) | FICI ([11]; CBD + PMBN at 2)
0.28-1.25 and 0.28-1.5: FICI range [11, 18]
0.75 and 0.625: FICI [10, 19]
0.25: FICI ([8]; CBD + PMBN at 4)
>256 µg/mL: Minimum Inhibitory Concentration (MIC) [1, 14] | Minimum Inhibitory Concentration (MIC) [1, 15] | Minimum Inhibitory Concentration (MIC) [3, 14] | Minimum Inhibitory Concentration (MIC) [3, 15] | Minimum Inhibitory Concentration (MIC) [4, 15] | Minimum Inhibitory Concentration (MIC) [5] | Minimum Inhibitory Concentration (MIC) [6, 14] | Minimum Inhibitory Concentration (MIC) [6, 15] | Minimal Inhibitory Concentration (MIC) ([7]; Example 1 Table 3, GN_034, compound alone, replicates) | Minimum Inhibitory Concentration (MIC) ([7]; Example 2 Table 7, GN_034, compound alone, replicates) | Minimum Inhibitory Concentration (MIC) ([7]; Example 3 Table 11, GN_034, compound alone, replicates) | Minimum Inhibitory Concentration (MIC) ([7]; Example 4 Table 15, GN_034, compound alone, replicates) | Minimum Inhibitory Concentration (MIC) ([7]; Example 5 Table 19, GN_034, compound alone, replicates) | Minimum Inhibitory Concentration (MIC) ([7]; Example 6 Table 23, GN_034, compound alone, replicates) | Minimal Inhibitory Concentration (MIC) ([7]; Example 7 Table 27, GN_034, compound alone, replicates) | CBD MIC with PMBN (MCC_9298) at concn 1 μg/mL ([9]; Example 10) | CBD MIC with PMBN (MCC_9298) at concn 2 μg/mL ([9]; Example 10) | Minimal Inhibitory Concentration (MIC) ([12]; Example 1 Table 3, GN_042, compound alone, replicates) | Minimum Inhibitory Concentration (MIC) ([12]; Example 6 Table 23, GN_042, compound alone, replicates)

— patent publication US20230013669A1, “Antibacterial Treatment Using a Cannabinoid and an Active Agent” (priority 2019, published 2023)
